Bridge positions count the residues as written; N and C are the ends. Square brackets hold non-standard residues; d marks the D form. Peptide text beside a SMILES is read from it. Trp(1-Me) = Cn1cc(C[C@H](N)C(=O)O)c2ccccc21; 1Nal = N[C@@H](Cc1cccc2ccccc12)C(=O)O; 2Nal = N[C@@H](Cc1ccc2ccccc2c1)C(=O)O; Cit = NC(=O)NCCC[C@H](N)C(=O)O; αMeL = CC(C)C[C@](C)(N)C(=O)O; Orn = NCCC[C@H](N)C(=O)O; Aib = CC(C)(N)C(=O)O
Assays:
[1] = system: IL-23 induced STAT3 signaling; experiment: Inhibition of IL-23 induced STAT3 signaling in HEK-Blue IL-23 cells (SEAP reporter); assay type: cell-based; settings: human IL-23 0.25 ng/ml, read-out: Inhibition of IL-23 induced pSTAT3 (IC50 nM)
Description: HEK-Blue™ IL-23 cells (Invivogen) are designed for the detection of bioactive human (hIL-23) and murine IL-23 (mIL-23) by monitoring the activation of the STAT3 pathway. Binding of IL-23 to its receptor on the surface of HEK-Blue™ IL-23 cells triggers a signaling cascade leading to the activation of STAT3 and the subsequent production of secreted embryonic alkaline phosphatase (SEAP). This can be readily assessed using QUANTI-Blue™ Solution, a SEAP detection reagent.
HEK-Blue™ IL-23 cells were cultured as described by Invivogen.
On the first day of assay 10 μL of the HEK-Blue IL-23 cell suspension (final concentration: 10,000 cells/well) and 10 μl of serially diluted compound solutions were dispensed into a 384-well assay plate. After pre-incubation of the reaction mixtures at 37° C./5% CO2/95% humidity for 60 minutes, 10 μl of the humanIL-23 cytokine (final concentration: 0.25 ng/ml) was added to each well for the STAT3 signaling activation. The plate was incubated overnight at 37° C./5% CO2/95% humidity.
On the second day 20 μl per well of Quanti-Blue detection solution (prepared according to the manufacture instruction) was dispensed into a new 384-well plate and followed by the transfer of 5 μl supernatant of the overnight incubated cell/sample mixtures. After incubation of 45 min at room temperature signals were measured with PHERAstar (BMG) at OD 620-655 nm.
Dose response data were fitted with XLfit.

[2] = Chemical stability (relative purity loss) of peptide compounds in buffer formulations; assay type: physicochemical
Experimental: Purity of a compound batch was determined through UHPLC/MS prior to chemical stability measurement using Method A.
For stability assessment, the target concentration was 300 μM pure compound. Therefore, solutions from solid samples were prepared in the following buffer systems with a concentration of ~300 µM compound based on the previously determined % purity. The solid samples were obtained by drying down aliquots of a freshly prepared acetonitrile stock solution using a THERMO SPEEDVAC vacuum centrifuge. The dry down time was 3 hours.
The following buffer systems were applied: • Solubility buffer system A) 100 mM phosphate buffer pH 7.4. • Solubility buffer system B) 100 mM phosphate buffer pH 6.5. • Solubility buffer system C) 100 mM HCl pH 1.2.
Prepared solutions were filtered through […] pore size and filled into sterilized glass containers under laminar flow conditions.
[…] After this time course, the samples were centrifuged for 15 min at 2500 RCF. Then 1.5 μl of the undiluted supernatant were analysed with UHPLC-UV.
The chemical stability was rated through the relative loss of purity calculated by the equation:
[(purity after 0 hours at 37° C.)(purity after 24 hours at 37° C.)]/(purity after 0 hours at 37° C.)]*100%.
The purity is calculated as [(peak area peptide)/(total peak area)]*100%.
Buffer composition: 100 mM HCl pH 1.2, 100 mM phosphate buffer pH 6.5, 100 mM phosphate buffer pH 7.4

human IL-23R = biological target: T1, human IL-23R (Homo sapiens, UniProt Q5VWK5); experiment: Human ELISA IL-23/IL-23R binding inhibition; settings: human IL-23 coated, recombinant human IL-23R-Fc chimera
T1 sequence (Q5VWK5 24-355 limits assumed): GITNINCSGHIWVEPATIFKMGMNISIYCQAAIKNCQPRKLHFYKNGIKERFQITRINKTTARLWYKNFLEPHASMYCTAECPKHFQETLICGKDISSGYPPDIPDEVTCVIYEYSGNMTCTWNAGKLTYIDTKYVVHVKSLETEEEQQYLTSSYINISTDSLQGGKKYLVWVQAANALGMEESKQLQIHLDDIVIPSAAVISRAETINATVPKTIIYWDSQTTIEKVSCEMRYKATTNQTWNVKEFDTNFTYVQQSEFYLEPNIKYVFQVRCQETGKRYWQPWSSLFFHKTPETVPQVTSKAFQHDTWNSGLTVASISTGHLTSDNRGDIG
Experimental: Antagonism of peptide compounds for human interleukin-23 receptor inhibitors, was determined by an ELISA assay.
A 384-well plate was coated with 50 μl/well of human IL-23 at a final concentration of 1 μg/ml and incubated overnight at 4° C. The wells were washed 3 times with 80 μl wash buffer and blocked with 80 μl blocking buffer for 60 minutes at room temperature and washed again. 20 μl of serially diluted test peptides was added to each well and subsequently 20 μl of recombinant human IL-23R-Fc chimera at final concentration of 0.1 μg/ml. The plate was incubated for 60 minutes at room temperature. After the wells were washed, bound IL-23R-Fc was detected with goat anti-hu-lgG1-HRP antibody. Signals were visualized with QuantaBlu Fluorogenic Peroxidase Substrate.

[3] = pH 6.5 (100 mM phosphate buffer)
[4] = pH 7.4 (100 mM phosphate buffer)

SMILES | IC50 [1] [nM] | Conc. [mg/ml] 0 h ([2]; pH 1.2 (100 mM HCl)) [mg/mL] | Conc. [mg/ml] 24 h 37° C. ([2]; pH 1.2 (100 mM HCl)) [mg/mL] | Mass Balance [%] 24 h 37° C. ([2]; pH 1.2 (100 mM HCl)) [%] | Relative Purity Loss [%] 24 h 37° C. ([2]; pH 1.2 (100 mM HCl)) [%] | Conc. [mg/ml] 0 h [2, 3] [mg/mL] | Conc. [mg/ml] 24 h 37° C. [2, 3] [mg/mL] | Mass Balance [%] 24 h 37° C. [2, 3] [%] | Relative Purity Loss [%] 24 h 37° C. [2, 3] [%] | Conc. [mg/ml] 0 h [2, 4] [mg/mL] | Conc. [mg/ml] 24 h 37° C. [2, 4] [mg/mL] | Mass Balance [%] 24 h 37° C. [2, 4] [%] | Relative Purity Loss [%] 24 h 37° C. [2, 4] [%] | IC50 (human IL-23R) [nM]
COc1ccc(C[C@@H]2NC(=O)[C@H](CCCNC(=N)N)NC(=O)[C@H](CCC(N)=O)NC(=O)[C@H](Cc3c[nH]c4ccccc34)NC(=O)[C@H]([C@@H](C)O)NC(=O)[C@H](CC(N)=O)NC(=O)[C@@H](NC(C)=O)CC(=O)NCCC[C@@H](C(=O)N[C@@H](CC(N)=O)C(=O)N[C@@H](CC(N)=O)C(N)=O)NC(=O)C(C)(C)NC(=O)[C@H](Cc3ccc4ccccc4c3)NC2=O)cc1 [compound 6] (Ac-DNTWQRY(Me)[2Nal][Aib][Orn]NN-NH2; lactam 1-10) | 366 | 1.6 | 1.1 | −3.8 | 27.3 | 1.4 | 1.3 | −1.4 | 0.6 | 1.4 | 1.3 | −4.8 | 1.4 | 1.96
COc1ccc(C[C@@H]2NC(=O)[C@H](CC(C)C)NC(=O)[C@H](CCC(N)=O)NC(=O)[C@H](Cc3c[nH]c4ccccc34)NC(=O)[C@H]([C@@H](C)O)NC(=O)[C@H](CC(N)=O)NC(=O)[C@H](NC(C)=O)CCCCNC(=O)C[C@@H](C(=O)N[C@@H](CC(N)=O)C(=O)N[C@@H](CC(N)=O)C(N)=O)NC(=O)C(C)(C)NC(=O)[C@H](Cc3cccc4ccccc34)NC2=O)cc1 [compound 7] (Ac-[dK]NTWQLY(Me)[1Nal][Aib]DNN-NH2; lactam 1-10) | 850 | 1.1 | 0.7 | −9.6 | 26.5 | 1.5 | 1.5 | −3.9 | 0.3 | 1.1 | 1.0 | −2.3 | 4.7 | 2.47
COc1ccc(C[C@@H]2NC(=O)[C@H](CCCNC(=N)N)NC(=O)[C@H](CCC(N)=O)NC(=O)[C@H](Cc3c[nH]c4ccccc34)NC(=O)[C@H]([C@@H](C)O)NC(=O)[C@H](CC(N)=O)NC(=O)[C@H](NC(C)=O)CCCCNC(=O)C[C@@H](C(=O)N[C@@H](CC(N)=O)C(=O)N[C@@H](CC(N)=O)C(N)=O)NC(=O)[C@H](CCCNC(N)=O)NC(=O)[C@H](Cc3ccc4ccccc4c3)NC2=O)cc1 [compound 29] (Ac-[dK]NTWQRY(Me)[2Nal][Cit]DNN-NH2; lactam 1-10) | 2720 | – | – | – | – | – | – | – | – | – | – | – | – | 5.63
COc1ccc(C[C@@H]2NC(=O)[C@H](CCCNC(=N)N)NC(=O)[C@H](CCC(N)=O)NC(=O)[C@H](Cc3c[nH]c4ccccc34)NC(=O)[C@H]([C@@H](C)O)NC(=O)[C@H](CC(N)=O)NC(=O)[C@H](NC(C)=O)CCCCNC(=O)C[C@@H](C(=O)N[C@@H](CC(N)=O)C(=O)N[C@@H](CC(N)=O)C(N)=O)NC(=O)C(C)(C)NC(=O)[C@H](Cc3ccc4ccccc4c3)NC2=O)cc1 [compound 15] (Ac-[dK]NTWQRY(Me)[2Nal][Aib]DNN-NH2; lactam 1-10) | 426 | – | – | – | – | – | – | – | – | – | – | – | – | 1.04
COc1ccc(C[C@@H]2NC(=O)[C@H](CC(C)C)NC(=O)[C@H](CCC(N)=O)NC(=O)[C@H](Cc3c[nH]c4ccccc34)NC(=O)[C@H]([C@@H](C)O)NC(=O)[C@H](CC(N)=O)NC(=O)[C@H](NC(C)=O)CCCCNC(=O)C[C@@H](C(=O)N[C@@H](CC(N)=O)C(=O)N[C@@H](CC(N)=O)C(N)=O)NC(=O)C(C)(C)NC(=O)[C@H](Cc3ccc4ccccc4c3)NC2=O)cc1 [compound 1] (Ac-[dK]NTWQLY(Me)[2Nal][Aib]DNN-NH2; lactam 1-10) | 334 | – | – | – | – | – | – | – | – | – | – | – | – | 0.63
COc1ccc(C[C@@H]2NC(=O)[C@H](CCCNC(=N)N)NC(=O)[C@H](CCC(N)=O)NC(=O)[C@H](Cc3cn(C)c4ccccc34)NC(=O)[C@H]([C@@H](C)O)NC(=O)[C@H](CC(N)=O)NC(=O)[C@H](NC(C)=O)CCCCNC(=O)C[C@@H](C(=O)N[C@@H](CC(N)=O)C(=O)N[C@@H](CC(N)=O)C(N)=O)NC(=O)[C@H](CCCCNC(C)=O)NC(=O)[C@H](Cc3ccc4ccccc4c3)NC2=O)cc1 [compound 10] (Ac-[dK]NT[Trp(1-Me)]QRY(Me)[2Nal]K(Ac)DNN-NH2; lactam 1-10) | 1440 | – | – | – | – | – | – | – | – | – | – | – | – | 3.6
COc1ccc(C[C@@H]2NC(=O)[C@H](CCCNC(=N)N)NC(=O)[C@H](CCC(N)=O)NC(=O)[C@H](Cc3cn(C)c4ccccc34)NC(=O)[C@H]([C@@H](C)O)NC(=O)[C@H](CC(N)=O)NC(=O)[C@H](NC(C)=O)CCCCNC(=O)C[C@@H](C(=O)N[C@@H](CC(N)=O)C(=O)N[C@@H](CC(N)=O)C(N)=O)NC(=O)[C@](C)(CC(C)C)NC(=O)[C@H](Cc3cccc4ccccc34)NC2=O)cc1 [compound 23] (Ac-[dK]NT[Trp(1-Me)]QRY(Me)[1Nal][αMeL]DNN-NH2; lactam 1-10) | 1960 | – | – | – | – | – | – | – | – | – | – | – | – | 12
COc1ccc(C[C@@H]2NC(=O)[C@H](CCCNC(=N)N)NC(=O)[C@H](CCC(N)=O)NC(=O)[C@H](Cc3c[nH]c4ccccc34)NC(=O)[C@H]([C@@H](C)O)NC(=O)[C@H](CC(N)=O)NC(=O)[C@H](NC(C)=O)CCCCNC(=O)C[C@@H](C(=O)N[C@@H](CC(N)=O)C(=O)N[C@@H](CC(N)=O)C(N)=O)NC(=O)C(C)(C)NC(=O)[C@H](Cc3ccc4ccccc4c3)NC2=O)cc1 [compound 3] (Ac-[dK]NTWQRY(Me)[2Nal][Aib]DNN-NH2; lactam 1-10) | 430 | 1.5 | 1.1 | −3.4 | 23.2 | 1.2 | 1.1 | −3.6 | 1.1 | 1.4 | 1.3 | −3.1 | 3.6 | 1.55
COc1ccc(C[C@@H]2NC(=O)[C@H](CCCNC(=N)N)NC(=O)[C@H](CCC(N)=O)NC(=O)[C@H](Cc3c[nH]c4ccccc34)NC(=O)[C@H]([C@@H](C)O)NC(=O)[C@H](CC(N)=O)NC(=O)[C@H](NC(C)=O)CCCCNC(=O)CC[C@@H](C(=O)N[C@@H](CC(N)=O)C(=O)N[C@@H](CC(N)=O)C(N)=O)NC(=O)C(C)(C)NC(=O)[C@H](Cc3ccc4ccccc4c3)NC2=O)cc1 [compound 5] (Ac-[dK]NTWQRY(Me)[2Nal][Aib]ENN-NH2; lactam 1-10) | 432 | – | – | – | – | – | – | – | – | – | – | – | – | 1.95

From patent US20260250322A1, “NEW PEPTIDES AS SELECTIVE IL-23 RECEPTOR INHIBITORS” (SANOFI, priority 2023, published 2026)
